Publication PMC7587356, “High-Throughput Screening for Inhibitors of the SARS-CoV-2 Protease Using a FRET-Biosensor” (Molecules, 2020)
Read-outs that look alike come from different tables or passages of the source.

Key:
[1] = molecular target: T1, SARS-CoV-2 3CLpro (Severe acute respiratory syndrome coronavirus 2, UniProt P0DTD1); test: biochemical; format: biochemical; conditions: for inhibition at 5 µM: 4 h
[2] = molecular target: T1, SARS-CoV-2 3CLpro; test: biochemical; format: biochemical
[3] = sheet LOPAC_screen_w_protease, primary screen at 5 µM, mean of two replicates
[4] = sheet LOPAC_screen_w_protease, primary screen at 5 µM, replicate 1
[5] = sheet LOPAC_screen_w_protease, primary screen at 5 µM, replicate 2
[6] = with 0.01% Triton X-100; mean ± SD of triplicate; 4 h, 30 °C; read-out: A) EC50 with Triton X-100
[7] = without Triton X-100; mean ± SD of triplicate; 4 h, 30 °C; read-out: B) EC50 without Triton X-100

Compound | mean (LOPAC screen with protease) [1, 3] | Replicate_1 (LOPAC screen with protease) [1, 4] | Replicate_2 (LOPAC screen with protease) [1, 5] | Ratio (A/B) [2] | EC50 [2, 6] | EC50 [2, 7] | inhibition at 5 µM ([1]; sheet LOPAC_screen_w_protease, primary screen at 5 µM, mean of two replicates, read-out: mean (LOPAC screen with protease)) | inhibition at 5 µM ([1]; sheet LOPAC_screen_w_protease, primary screen at 5 µM, replicate 1, read-out: Replicate_1 (LOPAC screen with protease)) | inhibition at 5 µM ([1]; sheet LOPAC_screen_w_protease, primary screen at 5 µM, replicate 2, read-out: Replicate_2 (LOPAC screen with protease)) | inhibition at 5 µM ([1]; read-out: Replicate_1 (LOPAC screen with protease)) | inhibition at 5 µM ([1]; read-out: Replicate_2 (LOPAC screen with protease)) | inhibition at 5 µM ([1]; read-out: mean (LOPAC screen with protease)) | Ratio (A/B) ([2]; EC50 with Triton X-100 / EC50 without Triton X-100, ratio greater than 2 suggests aggregation-based inhibitor)
Br.Oc1ccc(C2CNCc3sccc32)cc1O (centres unmarked) [SKF 89626, reference compound] | 42.8167 | 43.262 | 42.3715 | 1.2 | 3.53 ± 0.565 µM | 2.83 ± 1.97 µM |  |  |  |  |  |  | 
N#C/C(=C\c1ccc(O)c(O)c1)C(N)=S [Tyrphostin 47, reference compound] |  |  |  |  | > 20 µM | 15.8 ± 10.1 µM | 28.2% | 30.5% | 25.9% |  |  |  | 
N#CC(C#N)=C(N)/C(C#N)=C/c1cc(O)c(O)c(O)c1 [Tyrphostin 51, reference compound] |  |  |  | 2.1 | 19 ± 14.2 µM | 9.12 ± 5.3 µM |  |  |  | 28% | 28.9% | 28.5% | 
COc1ccc2c(c1)CC[C@@H]1[C@@H]2CC[C@]2(C)[C@@H](NCCCCCCN3C(=O)C=CC3=O)CC[C@@H]12 [U-73122, reference compound] | 88.5998 | 89.4118 | 87.7878 |  | 0.694 ± 0.082 µM | 0.35 ± 0.017 µM |  |  |  |  |  |  | 2.0
